Data reported in patent US6271342A, “Sugar-modified cytostatics” (Bayer Aktiengesellschaft, priority 1995, dated 2001).
Read-outs that look alike come from different tables or passages of the source. Each block holds one compound with its values, some of them ahead of it.

Assays:
HT 29 = experiment: Growth inhibition test (MTT) for cytotoxic properties; assay type: cell-based, human
Summary of the method: (§1)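 SW 480 and HT 29 cells in RPMI 1640 with 10% FCS were seeded at 50,000 cells/ml, grown 1 day at 37 °C, then exposed to compound added in DMSO. MTT (5 mg/ml stock) was applied after day 3 and day 6 for 5 h, and formazan absorbance was read at 540 nm. IC50 values reported.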

SW 480 = experiment: as above; assay type: cell-based, human
Summary of the method: as §1

B 16 F 10 = experiment: as above; assay type: cell-based, mouse; details: Table 1b
Description: Growth Inhibition Test for Determination of the Cytotoxic Properties of Glycoconjugates of Batracyline and of Quinolone-a
The human colon cell lines SW 480 and HT 29 (ATCC no. CCL 228 and HBT-38) and the mouse melanoma cell line B 16 F 10 were cultured in Roux dishes in RPMI 1640 medium with addition of 10% FCS. The cultures were then trypsinized and taken up in RPMI plus 10% FCS to a cell count of 50,000 cells/ml. 100 μl of cell suspension/well were introduced into a 96 microwell plate and incubated for 1 day at 37° C. in a CO2 incubating cabinet. A further 100 μl of RPMI medium and 1 μl of dimethyl sulphoxide with the test substances were then added. The growth was checked after day 3 and day 6. 40 μl of MTT solution (3-(4,5-dimethylthiazol-2-yl)-2,5-diphenyltetrazoline bromide) with an initial concentration of 5 mg/ml of H2 O were added to each microwave. The plate was incubated for 5 hours in a CO2 incubating cabinet at 37° C. The medium was then sucked off and 100 μl of i-propanol/well were added. After shaking for 30 minutes with 100 μl of H2 O, the extinction was measured at 540 nm with a Titertek Multiskan MCC/340 (Flow).

[1] = Cleavage kinetics with human blood (HPLC); assay type: in vitro ADME; details: 37° C.
From the text: In Vitro Investigation of the Cleavability of the Glycoconjugates
Cleavage Kinetics With Human Blood

SW-480 [2] = system: SW-480
Description: Cleavage Kinetics With Cells
(§2) 2.25 ml of PBS are incubated together with 225 μl of a cell suspension (30 mg/ml) and 25 μl of substrate stock solution (1 mg/ml in 3% dimethyl sulphoxide in PBS) at 37° C. After 1 hour and 24 hours, samples of in each case 1 ml are taken, mixed with 1 ml of ethanol and left to stand at 4° C. for 20 minutes. After centrifugation (5 minutes at 3500 rpm), 100 μl of supernatant are taken for the HPLC analysis.

hepatoma [3] = system: hepatoma
Description: Cleavage Kinetics With Cells
as §2

B16F10 tumour = experiment: In vivo test, survival of mice with transplanted B16F10 tumour; set-up: species or system mouse; details: treated daily
Description: Mice are inoculated with 5×10^6 B16F10 tumour cells on day 0. The animals in which tumour cells are transplanted develop solid peritoneal tumours and are then treated daily with test substances or with the vehicle control. In the control group, 50% of the animals usually die between day 14 and 20. The test substances are administered in buffer or an organic solvent system comprising 20% methanol and 20% dimethyl sulphoxide in 0.7% sodium chloride solution.
The therapeutic result arises from the prolonging of the survival time of the treated animals. […] A therapeutic index can be estimated from the tolerance and prolonging of the survival time.

[4] = Acute toxicity, single administration; assay type: in vivo, nu/nu naked mice; details: for acute toxicity detected: dose of 400 mg/kg; for acute toxicity detected / individual dose of the substances which can be tolerated: single administration; for Individual dose tolerated in mg/kg of mouse, i.v.: single administration i.v., aqueous solution; for Individual dose tolerated in mg/kg of mouse, i.p.: single administration i.p., solution in dimethyl sulphoxide
Description: Determination of the Acute Toxicity of Glycoconjugates of Batracyline (Single Administration)
The acute toxicity of the batracyline derivatives was determined on nu/nu naked mice.
The substances administered i.v., as aqueous solutions, and the substances administered i.p., as solutions in dimethyl sulphoxide, were injected once in concentrations of up to 400 mg of substance per kg of mouse.
The individual dose tolerated was calculated from the decrease in the weight of the animals up to 21 days after administration and from the number of animals surviving.

SW-480 [5] = experiment: Cleavage kinetics with cells (HPLC); details: Table 2a; 37° C.; * = cleavage product is N-[D-alanyl]-batracyline
Description: Cleavage Kinetics With Cells
as §2

hepatoma [6] = experiment: Cleavage kinetics with cells (HPLC); details: Table 2a; 37° C.; * = cleavage product is N-[D-alanyl]-batracyline
Description: Cleavage Kinetics With Cells
as §2

[7] = Table 1a, glycoconjugates of batracyline
[8] = Table 2a, * = cleavage product is N-[D-alanyl]-batracyline

% cleavage in human blood 1 hour ([1]; Table 2b): 0%
% cleavage in human blood 24 hours ([1]; Table 2b): 11%
% cleavage in SW-480 1 hour (SW-480 [2]): 0%
% cleavage in SW-480 24 hours (SW-480 [2]): 8%
% cleavage in hepatoma 1 hour (hepatoma [3]): 0%
% cleavage in hepatoma 24 hours (hepatoma [3]): 12%
Compound: CO[C@H]1[C@H](O)[C@@H](Oc2ccc(NC(=S)NCCCC[C@H](NC(=S)Nc3ccc(O[C@H]4O[C@@H](C)[C@@H](O)[C@@H](OC)[C@@H]4O)cc3)C(=O)NC3C=CCC4CN(c5c(F)cc6c(=O)c(C(=O)O)cn(C7CC7)c6c5Cl)CC43)cc2)O[C@@H](C)[C@H]1O (stereo partly drawn) [Example 11.6, N-{N^α,N^ε -Bis-[O-(3-O-methyl-β-L-fucosyl)-4-hydroxy-phenylamino-thiocarbonyl]-lysyl}-quinolone-a]
IC50 (HT 29; Table 1b): 9 µM
IC50 (SW 480; Table 1b): 8 µM
IC50 (B 16 F 10): 5 µM

Compound: CO[C@H]1[C@H](O)[C@@H](Oc2ccc(NC(=S)NCCCC[C@@H](NC(=S)Nc3ccc(O[C@H]4O[C@@H](C)[C@@H](O)[C@@H](OC)[C@@H]4O)cc3)C(=O)NC3C=CCC4CN(c5c(F)cc6c(=O)c(C(=O)[O-])cn(C7CC7)c6c5Cl)CC43)cc2)O[C@@H](C)[C@H]1O.[Na+] (stereo partly drawn) [Example 11.12, N-{N^α,N^ε -Bis-[O-(3-O-methyl-β-L-fucosyl)-4-hydroxy-phenylamino-thiocarbonyl]-D-lysyl}-quinolone-a, sodium salt]
% survivors Day 0 (B16F10 tumour; 1 mg/kg): 100%
% survivors Day 20 (B16F10 tumour; 1 mg/kg): 90%
% survivors Day 25 (B16F10 tumour; 1 mg/kg): 60%
% survivors Day 30 (B16F10 tumour; 1 mg/kg): 30%
% survivors Day 35 (B16F10 tumour; 1 mg/kg): 30%
% survivors Day 0 (B16F10 tumour; 100 mg/kg): 100%
% survivors Day 20 (B16F10 tumour; 100 mg/kg): 100%
% survivors Day 25 (B16F10 tumour; 100 mg/kg): 100%
% survivors Day 30 (B16F10 tumour; 100 mg/kg): 90%
% survivors Day 35 (B16F10 tumour; 100 mg/kg): 90%

Compound: COc1cc([C@@H]2c3cc4c(cc3[C@@H](O[C@@H]3O[C@@H]5CO[C@@H](C)O[C@H]5[C@H](O)[C@H]3O)[C@H]3COC(=O)[C@H]23)OCO4)cc(OC)c1O [Etoposide, reference compound]
% survivors Day 0 (B16F10 tumour; 5 mg/kg): 100%
% survivors Day 20 (B16F10 tumour; 5 mg/kg): 90%
% survivors Day 25 (B16F10 tumour; 5 mg/kg): 80%
% survivors Day 30 (B16F10 tumour; 5 mg/kg): 80%
% survivors Day 35 (B16F10 tumour; 5 mg/kg): 70%

Compound: CC(NC(=O)C(CCCCNC(=S)Nc1ccc(OC2OC(C)C(O)C(OCC(=O)[O-])C2O)cc1)NC(=S)Nc1ccc(OC2OC(C)C(O)C(OCC(=O)[O-])C2O)cc1)C(=O)Nc1ccc2nc3n(c(=O)c2c1)Cc1ccccc1-3.[Na+].[Na+] [Example 6.12, N-{N^α,N^ε -Bis-[O-(3-O-carboxymethyl-β-L-fucosyl)-4-hydroxy-phenylamino-thiocarbonyl]-lysyl-D-alanyl}-batracyline, di-sodium salt]
IC50 (HT 29; [7]): 50 µM
IC50 (SW 480; [7]): 35 µM
acute toxicity detected [4]: no acute toxicity
individual dose of the substances which can be tolerated [4]: more than 200 mg of substance per kg of mouse
Individual dose tolerated in mg/kg of mouse, i.v. [4]: > 400 mg/kg of mouse
% cleavage in SW-480 1 hour (SW-480 [5]): 0%
% cleavage in SW-480 24 hours (SW-480 [5]): 0%
% cleavage in hepatoma 1 hour (hepatoma [6]): 0%
% cleavage in hepatoma 24 hours (hepatoma [6]): 0%

Compound: N-{N^ε -[O-(3,4-Di-O-methyl-β-D-galactopyranosyl)-4-hydroxy-phenylamino-thio carbonyl]-lysyl-D-alanyl}-batracyline, trifluoroacetate [Example 3.16]
individual dose of the substances which can be tolerated [4]: more than 200 mg of substance per kg of mouse
Individual dose tolerated in mg/kg of mouse, i.p. [4]: > 200 mg/kg of mouse

Compound: CC(NC(=O)C(N)CCCCNC(=S)Nc1ccc(OC2OC(CO)C(O)C(OCC(=O)[O-])C2O)cc1)C(=O)Nc1ccc2c(c1)CN1C(=O)c3ccccc3C1=N2.[Na+] [Example 3.33, N-{N^ε -[O-(3-O-Carboxymethyl-β-D-galactopyranosyl)-4-hydroxy-phenylamino-thiocarbonyl]-lysyl-D-alanyl}-batracyline, sodium salt]
IC50 (HT 29; [7]): 70 µM
IC50 (SW 480; [7]): 90 µM
acute toxicity detected [4]: no acute toxicity
individual dose of the substances which can be tolerated [4]: more than 200 mg of substance per kg of mouse
Individual dose tolerated in mg/kg of mouse, i.v. [4]: > 400 mg/kg of mouse

% cleavage in human blood 1 hour [1, 8]: 0%
% cleavage in human blood 24 hours [1, 8]: 0%
% cleavage in SW-480 1 hour (SW-480 [2]): 0%
% cleavage in SW-480 24 hours (SW-480 [2]): 0%
% cleavage in hepatoma 1 hour (hepatoma [3]): 0%
% cleavage in hepatoma 24 hours (hepatoma [3]): 0%
Compound: N-{N^α -[O-(4-O-Methyl-β-L-fucosyl)-4-hydroxy-phenylamino-thiocarbonyl]-lysy l-D-alanyl}-batracyline [Example 4.4]
IC50 (HT 29; [7]): 25 µM
IC50 (SW 480; [7]): 30 µM

Compound: N-[Lysyl-D-alanyl]-batracyline, di-trifluoroacetate [Example 2.13]
Individual dose tolerated in mg/kg of mouse, i.p. [4]: 50 mg/kg of mouse
Individual dose tolerated in mg/kg of mouse, i.v. [4]: 25 mg/kg of mouse

Compound: N-{N^α,N^ε -Bis-[O-(β-L-fucosyl)-4-hydroxy-phenylamino-thiocarbonyl]-lysyl-D-ala nyl}-batracyline [Example 6.14]
acute toxicity detected [4]: no acute toxicity
individual dose of the substances which can be tolerated [4]: more than 200 mg of substance per kg of mouse
Individual dose tolerated in mg/kg of mouse, i.p. [4]: > 400 mg/kg of mouse

% cleavage in human blood 1 hour [1, 8]: 0%
% cleavage in human blood 24 hours [1, 8]: 0%
% cleavage in SW-480 1 hour (SW-480 [2]): 0%
% cleavage in SW-480 24 hours (SW-480 [2]): 0%
% cleavage in hepatoma 1 hour (hepatoma [3]): 0%
% cleavage in hepatoma 24 hours (hepatoma [3]): 0%
Compound: N-{N^α -[O-(3-O-Carboxymethyl-β-L-fucosyl)-4-hydroxyphenylaminothiocarbonyl] -N^α -[acetyl]-lysyl-D-alanyl batracyline [Example 5.9]
IC50 (HT 29; [7]): 70 µM
IC50 (SW 480; [7]): 70 µM

Compound: CC(NC(=O)C(CCCCNC(=S)Nc1ccc(OC2OC(CO)C(O)C(OCC(=O)[O-])C2O)cc1)NC(=S)Nc1ccc(OC2OC(CO)C(O)C(OCC(=O)[O-])C2O)cc1)C(=O)Nc1ccc2nc3n(c(=O)c2c1)Cc1ccccc1-3.[Na+].[Na+] [Example 6.81, N-{N^α,N^ε -Bis-[O-(3-O-carboxymethyl-β-D-galactopyranosyl)-4hydroxy-phenylamino-thiocarbonyl]-lysyl-D-alanyl}-batracyline, di-sodium salt]
IC50 (HT 29; [7]): 30 µM
IC50 (SW 480; [7]): 30 µM
acute toxicity detected [4]: no acute toxicity
individual dose of the substances which can be tolerated [4]: more than 200 mg of substance per kg of mouse
Individual dose tolerated in mg/kg of mouse, i.v. [4]: > 400 mg/kg of mouse

Compound: CO[C@H]1[C@H](O)[C@@H](Oc2ccc(Nc3nc(NCCO)nc(NCCCC[C@H](N)C(=O)N[C@H](C)C(=O)Nc4ccc5c(=O)n6c(nc5c4)-c4ccccc4C6)n3)cc2)O[C@@H](C)[C@H]1O.O=C(O)C(F)(F)F [Example 8.2, N-{N^ε -[4-Hydroxyethylamino-2-[O-(3-O-methyl-β-L-fucosyl)-4-hydroxy-phenylamino]-triazin-6-yl]-lysyl-D-alanyl}-batracyline, trifluoroacetate]
individual dose of the substances which can be tolerated [4]: more than 200 mg of substance per kg of mouse
Individual dose tolerated in mg/kg of mouse, i.p. [4]: > 200 mg/kg of mouse

% cleavage in human blood 1 hour [1, 8]: 0%
% cleavage in human blood 24 hours [1, 8]: 0%
% cleavage in SW-480 1 hour (SW-480 [2]): 0%
% cleavage in SW-480 24 hours (SW-480 [2]): 0%
% cleavage in hepatoma 1 hour (hepatoma [3]): 0%
% cleavage in hepatoma 24 hours (hepatoma [3]): 0%
Compound: CC(NC(=O)C(CO)NC(=S)Nc1ccc(OC2OC(C)C(O)C(O)C2O)cc1)C(=O)Nc1ccc2c(c1)Cn1c-2nc2ccccc2c1=O [Example 7.3, N-{N-[O-(β-L-Fucosyl)-4-hydroxy-phenylamino-thiocarbonyl]-seryl-D-alanyl]-batracyline]
IC50 (SW 480; [7]): 50 µM

Compound: COc1cccc2c1C(=O)c1c(O)c3c(c(O)c1C2=O)CC(O)(C(=O)CO)CC3OC1CC(NC(=O)C(C)NC(=O)C(CCCCNC(=S)Nc2ccc(OC3OC(C)C(O)C(OC)C3O)cc2)NC(=S)Nc2ccc(OC3OC(C)C(O)C(OC)C3O)cc2)C(O)C(C)O1 [Example 17.2, N-{N^α,N^ε -Bis-[O-(3-O-methyl-β-L-fuccopyranosyl)-4-hydroxy-phenylamino-thiocarbonyl]-D-lysyl-alanyl}-doxorubicin]
IC50 (HT 29; Table 1b): 4 µM
IC50 (SW 480; Table 1b): 4 µM
IC50 (B 16 F 10): 4 µM
